For the series the following is noted: rat; liver microsomes; pH 7.4; 15.0 min; 1.0 µM. In general terms: Liver microsomes are a subcellular fraction often used to study metabolism.

Molecules are shown by their SMILES. A value given as a limit tells only on which side of the number the result lay.

Broadly, the half-life is the time needed for the level to fall by half in the phase considered. Read a high half-life as slow decline. As for `O=C(NCc1cccnc1)c1nc(-c2ccc(Cl)nc2)c2cnccn12`, the half-life was 26.6 min.
In the case of `CCOC(=O)N1CCN(C(=O)Cn2sc3nc(C)cc(C)c3c2=O)CC1` it was more than 30 min.
Take `COc1cccc2c1CCCC2CCCN1CCN(C2CCCCC2)CC1` (stereo not drawn): the half-life was 3.39 min.
In the case of `Nc1c(C(=O)N2CCCCC2)sc(=S)n1-c1ccccc1`, the half-life worked out at 6.6 min.
On to `Cc1noc(C)c1-c1ccc(Nc2nc(-c3ccncc3)nc3ccccc23)cc1F`, for which the half-life turned out to be 10 min. This half-life is about 1.5-fold higher than that of the molecule before.
In the case of `COc1cccc(NC(=S)N2CCN(c3cccc(C(F)(F)F)c3)CC2)n1` it was 17.6 min; in that of `COc1ccc(NS(=O)(=O)c2ccc(C)c(C(=O)Nc3ccc4oc(C)nc4c3)c2)cc1`, 4.3 min.
Take `Cc1ccc(CC(=O)Nc2nc(-c3ccc4c(c3)CCN4C(=O)c3ccccc3C)c(C)s2)cc1C`: the half-life was found to be 19 min.
Take `O=C(Nc1ccc2c(N3CCCCC3)ncnc2c1)c1cc(F)cc(F)c1`: the half-life stood at 1.5 min.
As for `O=C(Nc1cccc(C(F)(F)F)c1)C1=CCN(Cc2ccc(F)cc2)CC1`, the figure is 3.4 min.
In the case of `Cc1ccc(-c2nc3ccccc3o2)cc1NC(=O)COc1ccccc1`, the half-life was determined as 3.5 min.
On to `COc1ccc(CN2CCNc3cc(Nc4ccccc4)ncc3C2)cc1`, for which the half-life was 3.17 min. The half-life values of the last two molecules are within 1.5-fold of each other.
In the case of `NC(=O)C1CCN(c2ncnc(-c3ccc4c(c3)OCCCO4)n2)CC1` it was 17.3 min.
In turn, `COc1cccc(CNc2ccc(S(=O)(=O)Nc3ccc(C4CCNCC4)cc3)cc2)c1O` showed a half-life of 29 min.
`Cc1nc(N)nc2ccccc12` registered a half-life of more than 30 min.
For the molecule `N#Cc1cnc(NS(=O)(=O)c2ccc(NC(=O)Cc3ccc(F)c(Cl)c3)cc2)s1`, the half-life is more than 30 min.
As for `CC(C)CNC(=O)c1cn2cc(-c3ccccc3)sc2n1`, the figure is more than 30 min; as for `COc1cccc(CNCc2cccn2-c2nnc(N3CCN(c4ccccc4)CC3)s2)c1`, 2.06 min; as for `COc1cc(C(=O)Nc2nc(-c3ccccc3)cs2)ccc1NS(=O)(=O)c1ccc(C)cc1`, 5.2 min.
Turning to `CCN1CCc2c(sc(NC(=O)Nc3ccc(Cl)c(Cl)c3)c2C(N)=O)C1`, the half-life is more than 30 min.
As for `COCCOc1cnc2ccn([C@H](C)c3nnc4c(F)cc(-c5cnn(C)c5)cn34)c(=O)c2c1`, the half-life was more than 30 min.
For the molecule `COc1ccc(CNC(=O)CCCn2nc(C)c3c(C)n(-c4ccc(C)cc4)nc3c2=O)cc1OC`, the half-life stood at 4.18 min.
As to `CCOC(=O)c1[nH]c(C)c(CCC(=O)N2CCN(c3cccc(C)c3C)CC2)c1C`, the half-life was 2.27 min.
In turn, `Cc1cc(/C=C2/C(=O)Nc3ccccc32)cc(C)c1O` showed a half-life of 11 min. This half-life is about 4.8-fold higher than that of the molecule before.
In the case of `O=C(Nc1ccc(S(=O)(=O)N2CCN(Cc3ccccc3)CC2)cc1)c1cnccn1` it was 1.8 min; in that of `CCOc1ccc(C(=O)Nc2ccc(S(=O)(=O)N3CCCCC3c3cccnc3)cc2)cc1` (stereo not drawn), 1.71 min.
`COc1c(C)c2c(c(O)c1C/C=C(\C)CCC(=O)OCCN1CCOCC1)C(=O)OC2`: the half-life amounted to 1 min.
For `Cc1ccc(-c2nnc(Nc3ccc(Br)cc3)c3ccccc23)cc1S(=O)(=O)N1CCN(C)CC1`, the half-life came out at 1.31 min.
The molecule `COc1ccc(-n2nc(C3CCCN(C(=O)Nc4ccccc4)C3)[nH]c2=O)cc1` (stereo not drawn) yielded a half-life of more than 30 min.
Turning to `Cc1ncc2c(c1CNC(=O)Cn1cnc3ccccc3c1=O)CCNC2`, the half-life was more than 30 min.
For `Cc1cc(NC(=O)c2ccc(NC(=O)Cc3ccc(Cl)c(Cl)c3)cc2)no1`, the half-life turned out to be 22 min.
Regarding `COc1ccc(CCNC(=O)Cn2c(=O)c3cccn3c3ccc(F)cc32)cc1OC`, the half-life came out at 1.81 min.
As for `O=[S+]([O-])(Nc1ccccc1)c1ccc(NCc2cccc(C(F)(F)F)c2F)cc1`, the figure is 9 min; as for `Cc1cnccc1-c1nc(Nc2ccc(F)c(F)c2)c2ccccc2n1`, 10 min; as for `COc1cccc(CNc2ccc(S(=O)(=O)Nc3nc4ccccc4o3)cc2)c1O`, more than 30 min.
As for `Cc1nn(Cc2ccccc2Cl)c(C)c1CN(C)CC(O)COc1ccc(Cl)cc1` (stereo not drawn), the half-life worked out at 2.2 min.
On to `COc1cccc(NS(=O)(=O)c2ccc(NCc3cccc(OC)c3O)cc2)c1`, for which the half-life is 4 min. This half-life is about 1.8-fold higher than that of the molecule before.
As for `Oc1ccccc1NCC(O)Cn1ccc2ccccc21` (stereo not drawn), the figure is 2.37 min; as for `COc1ccc(Cn2c(C(=O)O)c(CNCc3cccc(OC)c3)c3ccc(C)cc32)cc1`, 11.6 min.
As for `O=C(Nc1ccccc1-c1cn2c(CN3CCNCC3)csc2n1)c1cnc2ccccc2n1`, the figure is more than 30 min.
`CN(C)c1ccc(S(=O)(=O)N2CCCCC2)cc1NS(=O)(=O)c1ccc2ccccc2c1` came in with a half-life of 1.34 min.
Consider `Cc1ccc(S(=O)(=O)Nc2cccc(C(=O)Nc3nc(-c4ccccc4)cs3)c2)cc1`, for which the half-life is 16 min.
As for `Cc1ccc2[nH]c(-c3ccccc3)cc(=O)c2c1`, the figure is 15.9 min; as for `Fc1ccc(Nc2nc(-c3ccncc3F)nc3ccccc23)cc1F`, 20 min.
On to `CCN1C(=O)c2ccccc2S(=O)c2ccc(C(=O)NCc3ccccc3)cc21` (stereo not drawn), for which the half-life was 8.12 min. Against the preceding molecule, the half-life is about 2.5-fold lower.
As for `O=[S+]([O-])(Nc1ccc(-c2ccccc2)cc1)c1ccc(NCc2ccc(Cl)cc2O)cc1`, the figure is 18 min.
In the case of `CSc1ccccc1N1CCN(CCCCCC(=O)NC2CCCc3ccccc32)CC1` (stereo not drawn), the half-life was 2.21 min.
Regarding `COc1ccc(OC)c(Nc2c3c(nc4ccccc24)CCC3)c1`, the half-life came to 1.5 min. This half-life and that of the molecule before are within 1.5-fold of each other.
On to `NC(=O)C1CCN(c2nc(-c3ccc(OC(F)(F)F)cc3)cs2)CC1`, for which the half-life worked out at 7.66 min.
`Cc1cc(N=Nc2ccc(S(=O)(=O)Nc3ccccn3)cc2)c(N)cc1O` displayed a half-life of more than 30 min.
Take `COC(=O)Nc1nc2ccc(Sc3ccccc3)cc2[nH]1`: the half-life is 18.4 min.
With `CC(C)c1ccc(-n2ncc3c(=O)n(CC(=O)Nc4cc(F)ccc4Cl)cnc32)cc1`, the half-life amounted to 20 min.
Regarding `Fc1cc(Nc2nc(-c3ccncc3)nc3ccccc23)ccc1-c1ccc2[nH]ncc2c1`, the half-life was more than 30 min.
In turn, `NC(=O)C1CCN(c2nccc(-c3ccc4c(c3)OCCCO4)n2)CC1` had a half-life of 4.28 min.
In turn, `CC(=O)c1c(C)oc2ccc(N(C(=O)Oc3ccccc3)S(=O)(=O)c3ccccc3)cc12` showed a half-life of 1.48 min.
Regarding `O=C(Nc1ccc2oc(-c3cccnc3)nc2c1)c1ccc(-c2ccccc2)o1`, the half-life was 14.4 min.
Take `O=C(c1cc2ccccc2[nH]1)N1CCc2c(n(Cc3cccnc3)n(CCc3ccccc3)c2=O)C1`: the half-life came to 1.55 min.
Consider `Cc1cc(Nc2nc(-c3ccncc3)nc3ccccc23)n[nH]1`, for which the half-life came to 7.3 min.
`CCC(=O)NC(c1ccco1)c1cc(Cl)c2cccnc2c1O` (stereo not drawn) came in with a half-life of 3.3 min.
Consider `Cn1cncc1[C@@](N)(c1ccc(Cl)cc1)c1ccc2c(c1)c(-c1cccc(Cl)c1)cc(=O)n2C`, for which the half-life is 9.54 min.
`Cc1cnc(-c2ccccc2C2COC2)nc1NCc1ccc(-n2ccnn2)cc1` displayed a half-life of more than 30 min.
`CC(C)c1nc(CN(C)C(=O)N[C@H](C(=O)N[C@@H](Cc2ccccc2)C[C@H](O)[C@H](Cc2ccccc2)NC(=O)OCc2cncs2)C(C)C)cs1`: the half-life came to 22.1 min.
`CN1CCN(C(c2ccccc2)c2ccc(Cl)cc2)CC1` (stereo not drawn) registered a half-life of 3 min. This half-life is about 7.4-fold lower than that of the molecule before.
Molecule `COC[C@@H]1CN(C(=O)c2nn(C)c3ccccc23)C[C@H]1c1nc(C)no1` yielded a half-life of 25.7 min.
Take `CCN(CC)CCCCNc1ncc2cc(-c3c(Cl)cccc3Cl)c(NC(=O)NC(C)(C)C)nc2n1`: the half-life was more than 30 min.
`Cc1ccnc(NC(=S)N2CCN(c3ccc(Cl)c(Cl)c3)CC2)c1` came in with a half-life of 24 min.
Regarding `CC(CNC(=O)C1CCN(Cc2cc3ccccc3n2Cc2ccccc2)CC1)c1ccccc1` (stereo not drawn), the half-life was found to be 1.15 min.
Regarding `NC(=O)C1CCN(c2nc(-c3ccccc3-c3ccccc3)cs2)CC1`, the half-life came to 2.45 min. This half-life lies about 2.1-fold higher than the previous one.
As for `C#CCNC(=O)c1nc(-c2ccc([S+](C)(=O)[O-])cc2)c2ccccn12`, the figure is more than 30 min; as for `COc1ccc(-n2nc(C3CCN([S+](=O)([O-])c4c(C)noc4C)CC3)[nH]c2=O)cc1`, 22.9 min; as for `N[C@@H](Cc1cc(Br)c(O)c(Br)c1)C(=O)O`, more than 30 min.
In turn, `NC(=O)C1CCN(c2nc(-c3cccc(C(F)(F)F)c3)cs2)CC1` had a half-life of 1.99 min.
As for `COc1cc2c(c(OC)c1OC)-c1ccc(OC)c(=O)cc1[C@@H](NC(C)=O)CC2`, the figure is more than 30 min; as for `CCOC(=O)N1CCc2c(sc(NCc3sccc3C)c2C(=O)Nc2cc(Cl)ccc2OC)C1`, 9.8 min.
As to `COC(=O)CNC(=O)c1nc(-c2ccccc2OC)c2ccccn12`, the half-life is 5.38 min.
Take `COc1cccc(CNC(=O)c2ccc(N3CCCC3)c(NC(=O)Nc3ccccc3F)c2)c1`: the half-life is 1.7 min. This half-life lies about 3.2-fold lower than the previous one.
In the case of `CN([C@@H](Cc1ccc(OS(=O)(=O)c2cccc3cnccc23)cc1)C(=O)N1CCN(c2ccccc2)CC1)S(=O)(=O)c1cccc2cnccc12` it was 1 min.
In turn, `COc1ccc(-c2cc(C)nc3c(-c4ccc(OC)c(OC)c4)c(C)nn23)cc1` registered a half-life of more than 30 min.
The molecule `CC[C@H]1C=CC=CC[C@@H](C)[C@H](O)[C@@](C)(O)C(=O)[C@@H](C)[C@H](O)[C@@H](C)C(=O)[C@@H](C)[C@H](O)[C@@H](C)C=CC(=O)O[C@@H]2[C@@H](C)[C@H](CC1)O[C@]1(CC[C@H](C)[C@H](C[C@@H](C)O)O1)[C@H]2C` came in with a half-life of more than 30 min.
Take `CC1=C(C(=O)Nc2nncs2)C(c2nn(C)cc2Cl)N=C(Nc2nc3ccccc3o2)N1` (stereo not drawn): the half-life was more than 30 min.
The molecule `COc1cc2c3cc1Oc1c(O)c(OC)cc4c1[C@@H](Cc1ccc(cc1)Oc1cc(ccc1O)C[C@H]3N(C)CC2)N(C)CC4` displayed a half-life of 29.8 min.
As for `CC(C=CC(=O)NO)=C[C@@H](C)C(=O)c1ccc(N(C)C)cc1`, the figure is 4.06 min.
As for `CCOC(=O)N1CCN(Cc2nc3cc(NC(=O)c4ccc(OC)cc4)ccc3n2C(C)C)CC1`, the figure is 26 min; as for `CNc1nccc(-c2cccc3ccccc23)n1`, 7.7 min.
Take `NC(=O)N1CCCC(C(=O)N2CCCN(c3ccc(F)cc3)CC2)C1` (stereo not drawn): the half-life was more than 30 min.
Take `Cc1ccc(NS(=O)(=O)c2ccc3c(c2)NC(=O)CO3)cc1C`: the half-life was found to be 3.13 min.
As for `O=C(c1csnn1)N1CCC2(CCCN(C(c3ccccc3)c3ccccc3)C2)CC1`, the figure is 2.1 min.
As to `FC(F)(F)c1ccc(CNc2nc(-c3ccccc3C(F)(F)F)nc3ccccc23)cc1`, the half-life was more than 30 min.

The values are drawn from PubChem BioAssay AID1508591.
